Source: PubChem BioAssay (NCI)
Where “and” joins values, the source holds several entries; their conditions need not be identical. Equal values may be shown once.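 Following 48 hours of exposure in 96-well plates, responses at five concentrations were used to interpolate endpoints linearly. Here, GI50 denotes the concentration required for 50% inhibition of growth. TGI denotes the concentration required for complete inhibition of growth.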

Columns and labels:
Assay in all cases: NCI-60 cell line screen, 48 h
BT-549 breast = tested on: BT-549 breast
DU-145 prostate = tested on: DU-145 prostate
HCC-2998 colon = tested on: HCC-2998 colon
KM12 colon = tested on: KM12 colon
MDA-N = tested on: MDA-N
T-47D breast = tested on: T-47D breast
TK-10 renal = tested on: TK-10 renal
786-0 renal = tested on: 786-0 renal
DMS 114 small cell lung = tested on: DMS 114 small cell lung
KM20L2 colon = tested on: KM20L2 colon
XF 498 CNS = tested on: XF 498 CNS
DLD-1 colon = tested on: DLD-1 colon
HOP-18 NSCLC = tested on: HOP-18 NSCLC
SNB-78 CNS = tested on: SNB-78 CNS

Row | SMILES | TGI (BT-549 breast) | TGI (DU-145 prostate) | TGI (HCC-2998 colon) | TGI (KM12 colon) | TGI (MDA-N) | TGI (T-47D breast) | TGI (TK-10 renal) | TGI (786-0 renal) | TGI (DMS 114 small cell lung) | TGI (KM20L2 colon) | TGI (XF 498 CNS) | TGI (DLD-1 colon) | TGI (HOP-18 NSCLC) | TGI (SNB-78 CNS) | GI50 (DU-145 prostate) | GI50 (T-47D breast) | GI50 (TK-10 renal) | GI50 (BT-549 breast) | GI50 (HCC-2998 colon) | GI50 (KM12 colon)
1 | CN1Cc2cc(O)c(O)cc2C(O)C1 (centres undefined) | > 100 µM | > 100 µM | > 100 µM | > 100 µM | > 100 µM | > 100 µM | > 100 µM | – | – | – | – | – | – | – | – | – | – | – | – | –
2 | CC(C(=O)c1ccncc1)c1ccccn1 (centres undefined) | > 100 µM | > 100 µM | > 100 µM | > 100 µM | > 100 µM | > 100 µM | > 100 µM | > 100 µM | – | – | – | – | – | – | – | – | – | – | – | –
3 | COC(=O)C(Cc1ccc(N(C)C)cc1)(NC(=O)c1ccccc1)P(=O)(OC)OC (centres undefined) | – | – | > 100 µM | > 100 µM | – | – | > 100 µM | – | > 100 µM | > 100 µM | > 100 µM | – | – | – | – | – | – | – | – | –
4 | S=c1nc(N/N=C/c2cccs2)c2cn[nH]c2[nH]1 | > 100 µM | > 100 µM | 27.8 µM | 39.1 µM | – | > 100 µM | 49.3 µM | > 100 µM | – | – | – | – | – | – | – | – | – | – | – | –
5 | COc1ccc(NC(C(N)=O)c2cc3cc(Br)ccc3nc2Cl)cc1 (centres undefined) | > 100 µM | > 100 µM | > 100 µM | > 100 µM | > 100 µM | > 100 µM | 37.9 µM | > 100 µM | – | – | – | – | – | – | – | – | – | – | – | –
6 | COC1=C(C)C(=O)C2=C(C1=O)C1C3CC4=C(C(=O)C(OC)=C(C)C4=O)C(CNC(=O)C(C)O)N3C(C#N)C(C2)N1C (centres undefined) | < 0.01 µM | 0.0566 µM | < 0.0272 µM | 0.827 µM | < 0.0107 µM | < 0.01 µM | 0.579 µM | 1.24 µM | < 0.01 µM | 3.1 µM | – | 0.372 µM | < 0.01 µM | 0.0863 µM | – | – | – | – | – | –
7 | C=CC(C)C1(CCCOCc2ccccc2)C(=S)N2CCC3(CC24CCCC14)OCCO3 (centres undefined) | – | – | > 100 µM | > 100 µM | – | – | > 100 µM | – | > 100 µM | > 100 µM | 52.7 µM | > 100 µM | > 100 µM | > 100 µM | – | – | – | – | – | –
8 | COC1=CC(=O)C=C(OC)C1=O | – | – | 56.2 µM | 39.3 µM | – | – | – | – | 13.5 µM | 66.8 µM | 6.34 µM | 27.9 µM | 79.7 µM | 56.8 µM | – | – | – | – | – | –
9 | COC(=O)CNC(=O)CCC(C)[C@H]1CCC2C3C(C[C@H](OC(C)=O)[C@@]21C)[C@@]1(C)CCC2(C[C@H]1C[C@H]3OC(C)=O)OOC1(CC[C@]3(C)C4C[C@H](OC(C)=O)[C@@]5(C)C(CC[C@@H]5C(C)CCC(=O)NCC(=O)OC)C4[C@H](OC(C)=O)C[C@@H]3C1)OO2 (some centres undefined) | > 50 µM | – | 1.86 µM | 41.2 µM | > 50 µM | 22.4 µM | 2.55 µM | 1.42 µM | – | – | – | – | – | – | – | – | – | – | – | –
10 | COC(=O)[C@]1(c2ccc(N(C)C)cc2OC)C[C@@H]2CCCN(CCc3c1[nH]c1ccccc31)C2 | – | – | 29.8 µM | > 55.9 µM | – | – | – | – | 30.9 µM | 32.5 µM | 34.1 µM | > 64.1 µM | > 58.7 µM | > 91.1 µM | – | – | – | – | – | –
11 | COc1cc2c(cc1Oc1c(Oc3c(O)c(OC)cc4c3C(CC(C)C)N(C)CC4)c(OC)cc3c1C(CC(C)C)N(C)CC3)C(CC(C)C)N(C)CC2 (centres undefined) | – | – | 5.17 µM | 3.78 µM | – | – | – | – | 6.52 µM | 7.12 µM | – | 14.2 µM | 17.1 µM | 4.71 µM | – | – | – | – | – | –
12 | O=C(Nc1ccccc1Cl)c1ccc([N+](=O)[O-])cc1 | – | – | > 100 µM | > 100 µM | – | – | > 100 µM | > 100 µM | – | > 100 µM | > 100 µM | > 100 µM | – | > 100 µM | – | – | – | – | – | –
13 | COC(=O)c1cn(CC(O)CCl)nn1 (centres undefined) | > 100 µM | > 100 µM | > 100 µM | > 100 µM | > 100 µM | > 100 µM | > 100 µM | – | – | – | – | – | – | – | – | – | – | – | – | –
14 | CCCCCCCCCCCCCC[n+]1ccc(C(N)=O)cc1 | – | 10.7 µM | – | – | – | 14 µM | 2.79 µM | – | – | – | – | – | – | – | 2660 nM | 3.13 µM | 1180 nM | – | – | –
15 | CCOc1ccc(C(C)c2cc3c(cc2OC)OCO3)cc1 (centres undefined) | – | – | 12.1 µM | – | – | – | > 100 µM | – | 0.85 µM | 0.414 µM | 0.823 µM | 82.5 µM | > 100 µM | > 100 µM | – | – | – | – | – | –
16 | CN(O)C(=O)CCCC(=O)NCC(C)(C)CNC(=O)CCCC(=O)N(C)O | – | > 100 µM | > 100 µM | > 100 µM | > 100 µM | > 100 µM | > 100 µM | – | – | – | – | – | – | – | – | – | – | – | – | –
17 | Cc1cc(OCCOCCC(F)(F)P(=O)(O)O)ccc1CCc1cnc2c(N)nc3cc(CCC(=O)O)ccc3c2c1 | > 100 µM | > 100 µM | > 100 µM | > 100 µM | – | > 100 µM | > 100 µM | – | – | – | – | – | – | – | > 100000 nM | > 100 µM | > 100000 nM | > 100 µM | > 100 µM | > 100 µM
18 | O=C(O)/C(=C\c1ccc(O)cc1)c1cccc2ccccc12 | > 100 µM | > 100 µM | > 100 µM | > 100 µM | > 100 µM | > 100 µM | > 100 µM | > 100 µM | – | – | – | – | – | – | – | – | – | – | – | –
19 | O=P(Nc1ccccc1)(Oc1ccccc1)N(CCCl)CCCl (centres undefined) | – | – | > 100 µM | > 100 µM | – | – | > 100 µM | – | > 100 µM | > 100 µM | – | > 100 µM | > 100 µM | > 100 µM | – | – | – | – | – | –
20 | COc1cc2cc(C(=O)N3CC(CCl)c4ccc(N(C)C)cc43)[nH]c2c(OC)c1OC (centres undefined) | 1.33 µM | 0.359 µM | 0.106 µM | 0.543 µM | 0.431 µM | 0.378 µM | > 100 µM | – | – | – | – | – | – | – | – | – | – | – | – | –
21 | Cc1ccc(N=Nc2c(O)ccc3cc(S(=O)(=O)O)ccc23)cc1 | > 100 µM | > 100 µM | > 100 µM | > 100 µM | > 100 µM | > 100 µM | > 100 µM | > 100 µM and 25.2 µM | – | – | – | – | – | – | – | – | – | – | – | –
22 | Cc1[nH]c2ccccc2c1/C=N/NC(=O)c1cccc(I)c1 | 61.5 µM | 92.5 µM | 36.1 µM | 37.1 µM | 52.4 µM | 52.9 µM | 87.7 µM | 45.5 µM | – | – | – | – | – | – | – | – | – | – | – | –
